Measurements: patent US20160271086A1, “METHODS AND COMPOSITIONS FOR INDUCING REGULATORY T-CELL GENERATION” (SLOAN-KETTERING INSTITUTE FOR CANCER RESEARCH, priority 2013, published 2016)
“Also recorded” adds a separate entry of the source.

Assays:
GPR43 = biological target: T1, GPR43 (Mus musculus, UniProt Q8VCK6); conditions: Smith et al. Science 2013; cited from earlier work
T1 sequence (Q8VCK6 1-330): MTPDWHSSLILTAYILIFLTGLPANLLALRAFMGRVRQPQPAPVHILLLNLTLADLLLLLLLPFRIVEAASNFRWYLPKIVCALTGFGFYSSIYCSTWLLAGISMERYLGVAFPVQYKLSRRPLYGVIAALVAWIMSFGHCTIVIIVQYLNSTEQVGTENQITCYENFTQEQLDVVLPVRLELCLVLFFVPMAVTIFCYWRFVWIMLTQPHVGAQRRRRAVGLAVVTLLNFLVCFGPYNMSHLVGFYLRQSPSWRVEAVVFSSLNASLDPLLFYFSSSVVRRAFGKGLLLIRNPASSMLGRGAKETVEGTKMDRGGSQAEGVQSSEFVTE

naïve CD4+ T cells [1] = assay: In vitro Foxp3 induction assay: naïve CD4+ T cells co-cultured with DC, CD3 antibody, TGF-β, IL-2; type: cell-based, mouse; conditions: purified SCFA
Procedure: For in vitro experiments, CD4+ T cells and CD11c+ dendritic cells were enriched using mouse CD4 (L3T4, Invitrogen) and mouse CD11c (N418, BioLegend) antibodies, respectively, that were biotinylated for use with streptavidin-Dynabeads (Invitrogen). Enriched cells were then sorted on a FACSAria II cell sorter (BD Biosciences) for in vitro assays. Intracellular staining for IL-17, IFN-γ, IL-4, IL-13 and Foxp3 was performed using the Foxp3 staining kit (eBiosciences). Cytokine staining was performed after re-stimulation with CD3 antibody and CD28 antibody (5 μg ml-1 each) in the presence of Golgi-plug (BD Biosciences) for 5 hours. DC were expanded in vivo by subcutaneous injection of B16 melanoma cells secreting FLT3-ligand into the left hind flank of mice as indicated. Once tumors were visible, spleens from injected animals were dissociated in RPMI 1640 medium containing 1.67 U mL-1 liberase TL (Roche) and 50 μg mL-1 DNAse I (Roche) for 20 min at 37° C. with shaking EDTA was then added at a final concentration of 5 mM to stop digestion and the resulting homogenate was processed for CD11c+ cell isolation using the MACS mouse CD11c (N418) purification kit (Miltenyi Biotec). In vitro Foxp3 induction assays were performed by co-culturing DC with 5.5×10^4 CD4+CD44loCD62LhiCD25-naïve T cells in the presence of 1 μg ml-1 of CD3 antibody, 1 ng mL-1 TGF-β, and 100 U ml-1 IL-2, in 96-well flat-bottom plates for 4 d. For Foxp3 induction in the presence of butyrate- or TSA-pretreated DC, TGF-β was used at 0.1 ng mL-1 final concentration. In vitro induction assays in the absence of DC were performed by incubating 5.5×10^4 naïve CD4+ T cells with 1 ng mL-1 TGF-β, 100 U ml-1 IL-2, and a 1:1 cell-to-bead ratio of CD3/CD28 T activator Dynabeads (Invitrogen). […] Proliferation of T cells was assessed by [3H]-thymidine incorporation during the final 8 h of culture.

Flt3L-elicited DC = assay: Foxp3 induction by DC pre-treated with SCFA or TSA for 6 h, washed, co-cultured with naïve CD4+ T cells; type: cell-based, mouse; conditions: DC pre-treated 6 h, then agent removed
Procedure: DC were expanded in vivo by subcutaneous injection of B16 melanoma cells secreting FLT3-ligand into the left hind flank of mice as indicated. Once tumors were visible, spleens from injected animals were dissociated in RPMI 1640 medium containing 1.67 U mL-1 liberase TL (Roche) and 50 μg mL-1 DNAse I (Roche) for 20 min at 37° C. with shaking EDTA was then added at a final concentration of 5 mM to stop digestion and the resulting homogenate was processed for CD11c+ cell isolation using the MACS mouse CD11c (N418) purification kit (Miltenyi Biotec).
(§1) In vitro Foxp3 induction assays were performed by co-culturing DC with 5.5×10^4 CD4+CD44loCD62LhiCD25-naïve T cells in the presence of 1 μg ml-1 of CD3 antibody, 1 ng mL-1 TGF-β, and 100 U ml-1 IL-2, in 96-well flat-bottom plates for 4 d. For Foxp3 induction in the presence of butyrate- or TSA-pretreated DC, TGF-β was used at 0.1 ng mL-1 final concentration. In vitro induction assays in the absence of DC were performed by incubating 5.5×10^4 naïve CD4+ T cells with 1 ng mL-1 TGF-β, 100 U ml-1 IL-2, and a 1:1 cell-to-bead ratio of CD3/CD28 T activator Dynabeads (Invitrogen). For in vitro suppression assays, 4×10^4 naïve CD4+ T cells were FACS-sorted from B6 mice and cultured with graded numbers of CD4+Foxp3+ Treg cells FACS-sorted from Foxp3GFP mice treated with antibiotics and with or without butyrate, in the presence of […] irradiated T cell-depleted splenocytes and 1 μg ml-1 CD3 antibody in a 96-well round-bottom plate for 80 h. Proliferation of T cells was assessed by [3H]-thymidine incorporation during the final 8 h of culture.

Foxp3+ Treg cells = assay: SCFA in drinking water to AVNM-treated mice, flow cytometric analysis of Foxp3+ Treg cell subsets; type: in vivo; conditions: for colonic Treg cells (accumulation of Treg cells in the colon): SCFA in drinking water; for Treg cell subsets in the spleen: drinking water, AVNM-treated CNS1-sufficient mice
Excerpt: Fox[…] (CNS1 knockout), Foxp3GFP, Foxp3Thy1.1 and Gpr109a-/- mice were used in the experiments as previously described (Zheng. Y. et al. Nature, 2010, 463, 808-12; Fontenot, J. D. et al. Immunity, 2005, 22, 329-41; Kim, J. M., et al. Nat Immunol, 2007, 8, 191-7). Male C57BL/6 (B6) mice were purchased from the Jackson Laboratory and groups of 5 co-housed mice were randomly assigned to treatment vs. control groups after confirmation that age and weight were in accordance between groups. Male mice were used for all experiments. All strains were maintained in the Sloan-Kettering Institute animal facility in accordance with institutional guidelines. Mice were sacrificed by CO2 asphyxiation then blindly processed for tissue harvest thereafter. For antibiotic treatment, mice at 5-6 weeks of age were treated with 1 g L-1 metronidazole (Sigma-Aldrich), 0.5 g L-1 vancomycin (Hospira), 1 g L-1 ampicillin (Sigma-Aldrich) and 1 g L-1 kanamycin (Fisher Scientific) dissolved in drinking water. […] Butyrate was administered to mice after prior treatment with antibiotics for at least 1 week. For in vitro experiments, CD4+ T cells and CD11c+ dendritic cells were enriched using mouse CD4 (L3T4, Invitrogen) and mouse CD11c (N418, BioLegend) antibodies, respectively, that were biotinylated for use with streptavidin-Dynabeads (Invitrogen). Enriched cells were then sorted on a FACSAria II cell sorter (BD Biosciences) for in vitro assays. Intracellular staining for IL-17, IFN-γ, IL-4, IL-13 and Foxp3 was performed using the Foxp3 staining kit (eBiosciences). Cytokine staining was performed after re-stimulation with CD3 antibody and CD28 antibody (5 μg ml-1 each) in the presence of Golgi-plug (BD Biosciences) for 5 hours.

[2] = Butyrate levels in fecal pellets after butyrate in drinking water; type: in vivo; conditions: AVNM-treated mice given butyrate via drinking water
Procedure: Stool samples were collected directly into sterile tubes from live mice and snap-frozen before preparation of material for SCFA quantification by HPLC or LC-MS (see corresponding section for further sample processing).
HPLC analysis was performed for analysis of derivatized stool extracts as previously described (Torii, T. et al. Ann. Clin. Biochem, 2010, 47, 447-452). Briefly, flash-frozen stool samples were extracted with 70% ethanol and brought to a final concentration of 0.1 μg μL-1. Debris was removed by centrifugation and 300 μL of supernatant was transferred to a new tube and combined with 50 μL of internal standard (2-ethylbutyric acid, 200 mM in 50% aqueous methanol), 300 μL of dehydrated pyridine 3% v/v (Wako) in ethanol, 300 μL of 250 mM N-(3-dimethlaminopropyl)-N′-ethylcarbodiimide hydrochloride (Sigma-Aldrich) in ethanol, and 300 μL of 20 mM 2-nitrophenylhydrazine hydrochloride (Tokyo Chemical) in ethanol. Samples were incubated at 60° C. for 20 min and 200 μL of potassium hydroxide 15% w/v dissolved 80/20 in methanol was added to stop the derivatization reaction. […] Derivatized SCFA were resuspended in 100 μL of mobile phase (below) and 20 μL was chromatographed on a Shimadzu HPLC system equipped with a Vydac 2.1×30 mm 300 A C18 column run at 200 μL min-1 in methanol/acetonitrile/TFA (30%/16%/0.1% v/v) and monitored for absorbance at 400 nm.

[3] = LC-MS analysis of butyrate in serum; type: in vivo; conditions: AVNM-treated mice given butyrate in drinking water vs unperturbed SPF mice
Excerpt: Foxp3ΔCNS1 (CNS1 knockout), Foxp3GFP, Foxp3Thy1.1 and Gpr109a−/− mice were used in the experiments as previously described (Zheng. Y. et al. Nature, 2010, 463, 808-12; Fontenot, J. D. et al. Immunity, 2005, 22, 329-41; Kim, J. M., et al. Nat Immunol, 2007, 8, 191-7). Male C57BL/6 (B6) mice were purchased from the Jackson Laboratory and groups of 5 co-housed mice were randomly assigned to treatment vs. control groups after confirmation that age and weight were in accordance between groups. Male mice were used for all experiments. All strains were maintained in the Sloan-Kettering Institute animal facility in accordance with institutional guidelines. Mice were sacrificed by CO2 asphyxiation then blindly processed for tissue harvest thereafter. For antibiotic treatment, mice at 5-6 weeks of age were treated with 1 g L-1 metronidazole (Sigma-Aldrich), 0.5 g L-1 vancomycin (Hospira), 1 g L-1 ampicillin (Sigma-Aldrich) and 1 g L-1 kanamycin (Fisher Scientific) dissolved in drinking water. For butyrate, acetate and propionate administration, each SCFA was added to drinking water containing antibiotics (as described above) at a final concentration of 36 mM and pH-adjusted, if needed, to match that of antibiotic-only water. Butyrate was administered to mice after prior treatment with antibiotics for at least 1 week. […]

[4] = system: Foxp3 promoter and CNS1 enhancer; assay: H3K27Ac ChIP-qPCR at the Foxp3 locus; type: cell-based, mouse; conditions: 3 days, CD3/CD28 beads and TGF-β
Procedure: H3K27Ac ChIP-qPCR was performed as previously described (Samstein, R. M. et al. Cell, 2012, 151, 153-66). Briefly, fixed cells were lysed and mono- and poly-nucleosomes were obtained by partial digestion with micrococcal nuclease (12,000 U mL-1) in 1 min at 37° C. EDTA was added to a final concentration of 50 mM to stop the reaction, and digested nuclei were resuspended in nuclear lysis buffer with 1% SDS. After sonication, 1 ug H3K27Ac-specific antibody (Abcam, ab4729) was used to precipitate H3K27Ac-bound chromatin. Washing and de-crosslinking was performed as described (Samstein, R. M. et al. Cell, 2012, 151, 153-66).

[5] = system: Flt3L-elicited CD11c+ dendritic cells; assay: DC viability by live/dead staining and flow cytometry; type: cell-based, mouse; conditions: butyrate pretreatment 6 h
naïve CD4+ T cells [6] = assay: In vitro Foxp3 induction in the absence of DC (CD3/CD28 antibody-coated beads, TGF-β); type: cell-based, mouse; conditions: purified naive CD4+ T cells, CD3 and CD28 antibody-coated beads
Procedure: as §1

| Compound | accumulation of Treg cells in the colon by activating GPR43 (GPR43) | TGF-β-dependent generation of Foxp3+ cells in vitro (naïve CD4+ T cells [1]) | ability of pre-treated DCs to induce Foxp3 expression in naïve CD4+ T cells (Flt3L-elicited DC) | colonic Treg cells (accumulation of Treg cells in the colon) (Foxp3+ Treg cells; AVNM-treated mice) | Treg cell subsets in the spleen (Foxp3+ Treg cells) | levels of butyrate in fecal pellets [2] | butyrate serum levels [3] | non-lymphoid tissue histology (Foxp3+ Treg cells; butyrate in drinking water, AVNM-treated mice) | increase in H3K27-Ac occupancy ([4]; Foxp3+ cells) [%] | increase in H3K27-Ac at the Foxp3 promoter and CNS1 enhancer ([4]; Foxp3− cells) [fold] | DC viability [5] | increase in numbers of Foxp3+ cells in DC-free cultures (naïve CD4+ T cells [6]) [fold] |
| --- | --- | --- | --- | --- | --- | --- | --- | --- | --- | --- | --- | --- |
| CC(=O)O [acetate] | promote accumulation | not | not | promoted accumulation | did not increase |  |  |  |  |  |  |  |
| CCCC(=O)O [butyrate] |  |  |  |  |  | not reconstituted | comparable to those found in unperturbed SPF mice | remained unchanged | ~30 | 3 | no detrimental effect; also recorded: maintain | < 1.5 |
| CC(C)CC(=O)O [isovalerate] |  | augmented |  |  |  |  |  |  |  |  |  |  |
| CCC(=O)O [propionate] | promote accumulation | augmented | to a lesser extent | promoted accumulation | increased |  |  |  |  |  |  |  |
